From US10717716B2, “1,3,4-oxadiazole derivative compounds as histone deacetylase 6 inhibitor, and the pharmaceutical composition comprising the same” (Chong Kun Dang Pharmaceutical Corp., priority 2015, dated 2020)

Biological target: T1, human recombinant HDAC6 (Homo sapiens, UniProt Q9UBN7)
T1 construct: purchased Calbiochem 382180
T1 sequence (Q9UBN7 1-1215): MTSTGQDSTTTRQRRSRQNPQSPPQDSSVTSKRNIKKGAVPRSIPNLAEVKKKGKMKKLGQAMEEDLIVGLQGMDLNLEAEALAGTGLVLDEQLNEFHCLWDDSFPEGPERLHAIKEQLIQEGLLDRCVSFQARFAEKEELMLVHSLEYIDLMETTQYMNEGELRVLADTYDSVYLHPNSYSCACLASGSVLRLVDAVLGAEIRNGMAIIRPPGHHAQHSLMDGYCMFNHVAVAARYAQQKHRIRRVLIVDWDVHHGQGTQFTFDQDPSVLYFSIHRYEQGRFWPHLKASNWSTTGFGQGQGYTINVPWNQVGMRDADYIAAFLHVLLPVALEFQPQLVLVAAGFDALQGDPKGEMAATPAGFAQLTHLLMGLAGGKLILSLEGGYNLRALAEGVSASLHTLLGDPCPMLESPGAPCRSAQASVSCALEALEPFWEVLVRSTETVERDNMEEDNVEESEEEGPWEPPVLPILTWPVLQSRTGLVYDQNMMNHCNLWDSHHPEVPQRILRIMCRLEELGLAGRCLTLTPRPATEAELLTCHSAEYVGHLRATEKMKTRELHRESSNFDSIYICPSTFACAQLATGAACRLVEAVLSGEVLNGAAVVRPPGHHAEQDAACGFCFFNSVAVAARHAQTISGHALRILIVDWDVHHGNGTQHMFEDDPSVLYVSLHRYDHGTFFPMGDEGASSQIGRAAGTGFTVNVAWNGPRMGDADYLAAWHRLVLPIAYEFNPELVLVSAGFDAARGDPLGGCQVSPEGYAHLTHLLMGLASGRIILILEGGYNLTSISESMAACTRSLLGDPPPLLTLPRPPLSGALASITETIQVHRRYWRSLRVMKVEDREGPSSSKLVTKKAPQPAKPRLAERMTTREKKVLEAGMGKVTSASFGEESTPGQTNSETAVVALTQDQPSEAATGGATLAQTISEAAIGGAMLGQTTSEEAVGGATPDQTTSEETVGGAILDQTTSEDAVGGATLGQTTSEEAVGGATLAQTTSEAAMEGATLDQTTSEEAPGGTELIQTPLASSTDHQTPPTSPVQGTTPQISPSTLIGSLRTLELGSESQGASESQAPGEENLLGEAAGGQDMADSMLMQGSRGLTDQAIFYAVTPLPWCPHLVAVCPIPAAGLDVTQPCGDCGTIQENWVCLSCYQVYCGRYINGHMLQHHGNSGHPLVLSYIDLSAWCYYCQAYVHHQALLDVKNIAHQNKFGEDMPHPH
Assay: HDAC6 enzyme activity inhibition assay (HDAC Fluorimetric Drug Discovery Kit)
Type: biochemical
Settings: for HDAC6 selectivity (fold): HDAC6 over HDAC1; for IC50: human recombinant HDAC6, same protocol as HDAC1, read-out: HDAC6
In short: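 Fluorimetric deacetylase assay: 5-fold serial compound dilutions, 0.3 μg recombinant human enzyme (HDAC1 or HDAC6, same protocol), 10 μM Fluor de Lys-SIRT1 substrate, 60 min at 30 °C. Signal developed 30 min, measured at 360/460 nm; IC50 values derived.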

SMILES	HDAC6 selectivity (fold)	IC50
CCN1CCN(C(=O)N(Cc2ccc(-c3nnc(C(F)F)o3)cc2F)c2ccc(F)c(Cl)c2)CC1 [Compound 21591, N-(3-chloro-4-fluorophenyl)-N-(4-(5-(difluoromethyl)-1,3,4-oxadiazol-2-yl)-2-fluorobenzyl)-4-ethylpiperazine-1-carboxamide]	668 fold	15 nM
O=C(N1CCOCC1)N(Cc1ccc(-c2nnc(C(F)F)o2)cc1)c1ccc(F)c(Cl)c1 [Compound 21593, N-(3-chloro-4-fluorophenyl)-N-(4-(5-(difluoromethyl)-1,3,4-oxadiazol-2-yl)benzyl)morpholine-4-carboxamide]	494 fold	20 nM
O=C(N1CCOCC1)N(Cc1ccc(-c2nnc(C(F)(F)F)o2)cc1)c1ccc(F)c(Cl)c1 [Compound 21594, N-(3-chloro-4-fluorophenyl)-N-(4-(5-(trifluoromethyl)-1,3,4-oxadiazol-2-yl)benzyl)morpholine-4-carboxamide]	115 fold	87 nM
Cc1cccc(N(Cc2ccc(-c3nnc(C(F)F)o3)cn2)C(=O)N2CCN(C)CC2)c1 [Compound 21597, N-((5-(5-(difluoromethyl)-1,3,4-oxadiazol-2-yl)pyridin-2-yl)methyl)-4-methyl-N-(m-tolyl)piperazine-1-carboxamide]	323 fold	31 nM
Cc1ccc(N(Cc2ccc(-c3nnc(C(F)F)o3)cn2)C(=O)N2CCN(C)CC2)cc1 [Compound 21598, N-((5-(5-(difluoromethyl)-1,3,4-oxadiazol-2-yl)pyridin-2-yl)methyl)-4-methyl-N-(p-tolyl)piperazine-1-carboxamide]	238 fold	42 nM
CN1CCN(C(=O)N(Cc2ccc(-c3nnc(C(F)F)o3)cn2)c2cccc(F)c2)CC1 [Compound 21599, N-((5-(5-(difluoromethyl)-1,3,4-oxadiazol-2-yl)pyridin-2-yl)methyl)-N-(3-fluorophenyl)-4-methylpiperazine-1-carboxamide]	500 fold	20 nM
CN1CCN(C(=O)N(Cc2ccc(-c3nnc(C(F)F)o3)cn2)c2ccc(F)cc2)CC1 [Compound 21600, N-((5-(5-(difluoromethyl)-1,3,4-oxadiazol-2-yl)pyridin-2-yl)methyl)-N-(4-fluorophenyl)-4-methylpiperazine-1-carboxamide]	400 fold	25 nM
CN(C)[C@H]1CCN(C(=O)N(Cc2ccc(-c3nnc(C(F)F)o3)cn2)c2ccc(F)c(Cl)c2)C1 [Compound 21601, (S)—N-(3-chloro-4-fluorophenyl)-N-((5-(5-(difluoromethyl)-1,3,4-oxadiazol-2-yl)pyridin-2-yl)methyl)-3-(dimethylamino)pyrrolidine-1-carboxamide]	192 fold	52 nM
CN(C)[C@@H]1CCN(C(=O)N(Cc2ccc(-c3nnc(C(F)F)o3)cn2)c2ccc(F)c(Cl)c2)C1 [Compound 21602, (R)—N-(3-chloro-4-fluorophenyl)-N-((5-(5-(difluoromethyl)-1,3,4-oxadiazol-2-yl)pyridin-2-yl)methyl)-3-(dimethylamino)pyrrolidine-1-carboxamide]	526 fold	19 nM
O=C(N1CCOCC1)N(Cc1ccc(-c2nnc(C(F)F)o2)cn1)c1ccc(F)c(Cl)c1 [Compound 21619, N-(3-chloro-4-fluorophenyl)-N-((5-(5-(difluoromethyl)-1,3,4-oxadiazol-2-yl)pyridin-2-yl)methyl)morpholine-4-carboxamide]	517 fold	19 nM
CN1CCN(C(=O)N(Cc2ccc(-c3nnc(C(F)F)o3)cn2)c2ccc(F)c(Cl)c2)CC1 [Compound 21620, N-(3-chloro-4-fluorophenyl)-N-((5-(5-(difluoromethyl)-1,3,4-oxadiazol-2-yl)pyridin-2-yl)methyl)-4-methylpiperazine-1-carboxamide]	383 fold	26 nM
CN1CCN(c2cccc(N(Cc3ccc(-c4nnc(C(F)F)o4)cc3)C(=O)N3CCS(=O)(=O)CC3)c2)CC1 [Compound 21621, N-(4-(5-(difluoromethyl)-1,3,4-oxadiazol-2-yl)benzyl)-N-(3-(4-methylpiperazin-1-yl)phenyl)thiomorpholine-4-carboxamide 1,1-dioxide]	16 fold	637 nM

The next lines start with the values.

HDAC6 selectivity (fold)	IC50	SMILES
226 fold	44 nM	COc1cccc(N(Cc2ccc(-c3nnc(C(F)F)o3)cn2)C(=O)N2CCN(C)CC2)c1 [Compound 21622, N-((5-(5-(difluoromethyl)-1,3,4-oxadiazol-2-yl)pyridin-2-yl)methyl)-N-(3-methoxyphenyl)-4-methylpiperazine-1-carboxamide]
290 fold	35 nM	COc1ccc(N(Cc2ccc(-c3nnc(C(F)F)o3)cn2)C(=O)N2CCN(C)CC2)cc1 [Compound 21623, N-((5-(5-(difluoromethyl)-1,3,4-oxadiazol-2-yl)pyridin-2-yl)methyl)-N-(4-methoxyphenyl)-4-methylpiperazine-1-carboxamide]
347 fold	29 nM	CCN1CCN(C(=O)N(Cc2ccc(-c3nnc(C(F)F)o3)cn2)c2ccccc2)CC1 [Compound 21624, N-((5-(5-(difluoromethyl)-1,3,4-oxadiazol-2-yl)pyridin-2-yl)methyl)-4-ethyl-N-phenylpiperazine-1-carboxamide]
422 fold	24 nM	O=C(N1CCS(=O)(=O)CC1)N(Cc1ccc(-c2nnc(C(F)F)o2)cn1)c1ccccc1F [Compound 21625, N-((5-(5-(difluoromethyl)-1,3,4-oxadiazol-2-yl)pyridin-2-yl)methyl)-N-(2-fluorophenyl)thiomorpholine-4-carboxamide 1,1-dioxide]
645 fold	16 nM	O=C(N1CCS(=O)(=O)CC1)N(Cc1ccc(-c2nnc(C(F)F)o2)cn1)c1cccc(Cl)c1 [Compound 21626, N-(3-chlorophenyl)-N-((5-(5-(difluoromethyl)-1,3,4-oxadiazol-2-yl)pyridin-2-yl)methyl)thiomorpholine-4-carboxamide 1,1-dioxide]
22 fold	457 nM	CN1CCN(c2cccc(N(Cc3ccc(-c4nnc(C(F)F)o4)cn3)C(=O)N3CCS(=O)(=O)CC3)c2)CC1 [Compound 21627, N-((5-(5-(difluoromethyl)-1,3,4-oxadiazol-2-yl)pyridin-2-yl)methyl)-N-(3-(4-methylpiperazin-1-yl)phenyl)thiomorpholine-4-carboxamide 1,1-dioxide]
37 fold	271 nM	CN1CCN(c2ccc(N(Cc3ccc(-c4nnc(C(F)F)o4)cn3)C(=O)N3CCS(=O)(=O)CC3)cc2)CC1 [Compound 21628, N-((5-(5-(difluoromethyl)-1,3,4-oxadiazol-2-yl)pyridin-2-yl)methyl)-N-(4-(4-methylpiperazin-1-yl)phenyl)thiomorpholine-4-carboxamide 1,1-dioxide]
880 fold	11 nM	CCN1CCN(C(=O)N(Cc2ccc(-c3nnc(C(F)F)o3)cn2)c2ccc(F)c(Cl)c2)CC1 [Compound 21629, N-(3-chloro-4-fluorophenyl)-N-((5-(5-(difluoromethyl)-1,3,4-oxadiazol-2-yl)pyridin-2-yl)methyl)-4-ethylpiperazine-1-carboxamide]
